The results in this text go back to publication PMC6968676, “Inhibition survey with phenolic compounds against the δ- and η-class carbonic anhydrases from the marine diatom thalassiosira weissflogii and protozoan Plasmodium falciparum” (Journal of Enzyme Inhibition and Medicinal Chemistry, 2019).

For orientation: Ki means a dissociation constant, usually derived from enzyme kinetics or from competition with a known ligand. A low value points to tighter binding.

This experiment concerns the target T1, TweCA (TweCAδ) (Conticribra weissflogii, UniProt Q5U9J1).
T1 construct: gene ca1; recombinant, obtained in-house as reported earlier
T1 sequence (Q5U9J1 1-281): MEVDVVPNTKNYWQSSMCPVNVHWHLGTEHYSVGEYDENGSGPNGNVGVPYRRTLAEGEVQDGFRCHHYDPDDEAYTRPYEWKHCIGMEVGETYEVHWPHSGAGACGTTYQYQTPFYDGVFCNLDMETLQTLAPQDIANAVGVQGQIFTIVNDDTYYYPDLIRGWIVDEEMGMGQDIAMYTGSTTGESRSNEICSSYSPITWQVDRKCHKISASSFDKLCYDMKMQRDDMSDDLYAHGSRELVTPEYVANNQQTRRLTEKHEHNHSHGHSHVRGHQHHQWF
Nature of the experiment: stopped-flow CO2 hydration assay. It counts as biochemical.
`Oc1ccccc1` [compound 1, phenol (R = H)] displayed an inhibition constant Ki of 52.3 µM. `Oc1ccccc1O` [compound 2, R = 2-OH] gave a Ki of 4.5 µM. To `Oc1cccc(O)c1` [compound 3, R = 3-OH] belongs 48.2 µM. To `Oc1ccc(O)cc1` [compound 4, R = 4-OH] belongs 34.9 µM; to `Oc1ccc(O)c(O)c1` [compound 5, R = 2,4-diOH], 2 µM. In the case of `Nc1cccc(O)c1` [compound 6, R = 3-NH2] it was 65.4 µM; in that of `Nc1ccc(O)cc1` [compound 7, R = 4-NH2], 17.6 µM; in that of `CC(=O)Nc1ccc(O)cc1` [compound 8, R = 4-NHCOCH3], 7.9 µM.

Turning to `N#Cc1ccc(O)cc1` [compound 9, R = 4-CN], the Ki amounted to 56.9 µM. With `O=C(O)c1ccccc1O` [compound 10, R = 2-COOH], the Ki came out at 0.95 µM. As for `O=C(O)c1ccc(O)cc1` [compound 11, R = 4-COOH], the inhibitory constant (Ki) turned out to be 1.4 µM.

`OCc1ccc(O)cc1` [compound 12, R = 4-CH2OH]: the inhibitory constant (Ki) came out at 35.9 µM. To `Nc1cc(O)ccc1Cl` [compound 13, R = 3-NH2-4-Cl] belongs above 100 µM; to `Nc1ccc(O)c(Cl)c1` [compound 14, R = 4-NH2-2-Cl], above 100 µM; to `Oc1cc(F)ccc1F` [compound 15, R = 2,5-diF], 30.7 µM. In the case of `Oc1cc(F)cc(F)c1` [compound 16, R = 3,5-diF] it was 21 µM; in that of `Oc1c(F)cc(F)cc1F` [compound 17, R = 2,4,6-triF], 13.8 µM; in that of `O=C(O)c1ccc(O)c(O)c1` [compound 18, R = 4-COOH-2-OH], 4.9 µM. `O=C(O)c1c(O)cccc1O` [compound 19, R = 2-COOH-3-OH] registered a Ki of 2.7 µM.

On to `O=C(O)c1cc(O)ccc1O` [compound 20, R = 2-COOH-4-OH], for which the affinity, expressed as Ki, was 0.81 µM. To `O=C(O)/C=C/c1ccc(O)cc1` [compound 21, R = 4-(CHCHCOOH)] belongs 14.5 µM; to `O=C(O)/C=C/c1ccc(O)c(O)c1` [compound 22, R = 2-OH-4-(CHCHCOOH)], 5.9 µM.
